# Experimental data published in ChEMBL document CHEMBL3751778, “Synthesis and biological evaluation of novel 7-O-lipophilic substituted baicalein derivatives as potential anticancer agents” (Medchemcomm, 2015).
# pIC50: −log10 of the molar value. Active and inactive are the calls of the source. The rule behind the calls is not given here.
# Tests used:
# SW480 [1] = assay: Antiproliferative activity against human SW480 cells after 48 hrs by MTT assay; type: functional, cell-based; settings: SW480, 48 h
# [2] = Antioxidant activity assessed as DPPH radical scavenging activity after 30 mins by ELISA reader analysis; type: physicochemical
# [3] = Antioxidant activity assessed as ABTS radical scavenging activity after 6 mins by photometric analysis; type: physicochemical
# [4] = Antiproliferative activity against human DLD1 cells after 48 hrs by MTT assay; type: functional, cell-based; settings: DLD-1, 48 h
# [5] = Cytotoxicity against mouse BNL-CL2 cells after 48 hrs by MTT assay; type: cell-based; settings: BNL CL.2, 48 h
# HT-29 [6] = assay: cells; settings: Homo sapiens, HT-29, 48 h
# Description: Antiproliferative activity against human HT-29 cells after 48 hrs by MTT assay
# HepG2 = assay: cells; settings: Homo sapiens, HepG2, 48 h
# SW480 [7] = assay: Induction of apoptosis in human SW480 cells assessed as nuclear shrinkage at 20 uM after 48 hrs by Hoechst 33258 staining-based fluorescence microscopic analysis; type: functional, cell-based
# SW480 [8] = assay: Induction of apoptosis in human SW480 cells assessed as chromatin condensation at 20 uM after 48 hrs by Hoechst 33258 staining-based fluorescence microscopic analysis; type: functional, cell-based
# SW480 [9] = assay: Induction of apoptosis in human SW480 cells assessed as DNA fragmentation at 20 uM after 48 hrs by Hoechst 33258 staining-based fluorescence microscopic analysis; type: functional, cell-based
# SW480 [10] = assay: Cell cycle arrest in human SW480 cells assessed as accumulation at G1 phase at 5 uM after 48 hrs by propidium iodide staining-based flow cytometric analysis (reference value: 65.24%); type: functional
# SW480 [11] = assay: Cell cycle arrest in human SW480 cells assessed as accumulation at G1 phase at 10 uM after 48 hrs by propidium iodide staining-based flow cytometric analysis (reference value: 65.24%); type: functional
# SW480 [12] = assay: Cell cycle arrest in human SW480 cells assessed as accumulation at G1 phase at 20 uM after 48 hrs by propidium iodide staining-based flow cytometric analysis (reference value: 65.24%); type: functional
# SW480 [13] = assay: Cell cycle arrest in human SW480 cells assessed as accumulation at S phase at 5 uM after 48 hrs by propidium iodide staining-based flow cytometric analysis (reference value: 26.19%); type: functional
# SW480 [14] = assay: Cell cycle arrest in human SW480 cells assessed as accumulation at S phase at 10 uM after 48 hrs by propidium iodide staining-based flow cytometric analysis (reference value: 26.19%); type: functional
# SW480 [15] = assay: Cell cycle arrest in human SW480 cells assessed as accumulation at S phase at 20 uM after 48 hrs by propidium iodide staining-based flow cytometric analysis (reference value: 26.19%); type: functional
# SW480 [16] = assay: Cell cycle arrest in human SW480 cells assessed as accumulation at G2/M phase at 5 uM after 48 hrs by propidium iodide staining-based flow cytometric analysis (reference value: 8.57%); type: functional
# SW480 [17] = assay: Cell cycle arrest in human SW480 cells assessed as accumulation at G2/M phase at 10 uM after 48 hrs by propidium iodide staining-based flow cytometric analysis (reference value: 8.57%); type: functional
# SW480 [18] = assay: Cell cycle arrest in human SW480 cells assessed as accumulation at G2/M phase at 20 uM after 48 hrs by propidium iodide staining-based flow cytometric analysis (reference value: 8.57%); type: functional
# SW480 [19] = assay: Induction of apoptosis in human SW480 cells assessed as early apoptotic cells after 48 hrs by annexin V-FITC/propidium iodide staining-based flow cytometric analysis; type: functional, cell-based
# SW480 [20] = assay: Induction of apoptosis in human SW480 cells assessed as early apoptotic cells at 10 uM after 48 hrs by annexin V-FITC/propidium iodide staining-based flow cytometric analysis; type: functional, cell-based
# SW480 [21] = assay: Induction of ROS generation in human SW480 cells assessed as superoxide anion level at 5 uM after 48 hrs by DHE staining-based fluorescence assay (reference value: 101.21); type: functional
# SW480 [22] = assay: Induction of ROS generation in human SW480 cells assessed as superoxide anion level at 10 uM after 48 hrs by DHE staining-based fluorescence assay (reference value: 101.21 No_Unit); type: functional
# SW480 [23] = assay: Induction of ROS generation in human SW480 cells assessed as superoxide anion level at 20 uM after 48 hrs by DHE staining-based fluorescence assay (reference value: 101.21 No_Unit); type: functional
# SW480 [24] = assay: Induction of ROS generation in human SW480 cells after 48 hrs by DHE staining-based fluorescence assay; type: functional, cell-based
# SW480 [25] = assay: Antiproliferative activity against human SW480 cells after 24 hrs by MTT assay; type: functional, cell-based; settings: SW480, 24 h
# SW480 [26] = assay: Antiproliferative activity against human SW480 cells after 72 hrs by MTT assay; type: functional, cell-based; settings: SW480, 72 h
# HT-29 [27] = assay: Antiproliferative activity against human HT-29 cells after 24 hrs by MTT assay; type: functional, cell-based; settings: HT-29, 24 h
# HT-29 [28] = assay: Antiproliferative activity against human HT-29 cells after 72 hrs by MTT assay; type: functional, cell-based; settings: HT-29, 72 h
# [29] = Antiproliferative activity against human DLD1 cells after 24 hrs by MTT assay; type: functional, cell-based; settings: DLD-1, 24 h
# [30] = Antiproliferative activity against human DLD1 cells after 72 hrs by MTT assay; type: functional, cell-based; settings: DLD-1, 72 h
# SW480 [31] = assay: Induction of apoptosis in human SW480 cells assessed as late apoptotic cells at 10 uM after 48 hrs by annexin V-FITC/propidium iodide staining-based flow cytometric analysis; type: functional, cell-based
# [32] = Cytotoxicity against mouse BNL-CL2 cells assessed as induction of cell death at 20 uM after 48 hrs by MTT assay; type: cell-based; settings: bnl-cl2, 48 h
structure (smiles),measurement,setting,value
COc1cccc2c1C(=O)c1c(O)c3c(c(O)c1C2=O)C[C@@](O)(C(=O)CO)C[C@@H]3O[C@H]1C[C@H](N)[C@H](O)[C@H](C)O1 [DOXORUBICIN],pIC50,SW480 [1],6.28
CCCCOc1cc2oc(-c3ccccc3)cc(=O)c2c(O)c1O,pIC50,[2],4.89
same,pIC50,[3],4.85
same,pIC50,SW480 [1],< 4.70
same,pIC50,[4],< 4.70
same,pIC50,[5],< 4.70
same,pIC50,HT-29 [6],4.71
same,pIC50,HepG2,< 4.70
O=C1O[C@H]([C@@H](O)CO)C(O)=C1O [ASCORBIC ACID],pIC50,[2],4.56
same,pIC50,[3],4.74
CC(C)=CCC/C(C)=C/CC/C(C)=C/COc1cc2oc(-c3ccccc3)cc(=O)c2c(O)c1O,pIC50,[2],4.61
same,pIC50,[3],4.62
same,pIC50,SW480 [1],5.94
same,pIC50,[4],5.31
same,pIC50,[5],< 4.70
same,Activity,SW480 [7],Active
same,Activity,SW480 [8],Active
same,Activity,SW480 [9],Active
same,Activity,SW480 [10],68.64%
same,Activity,SW480 [11],57.2%
same,Activity,SW480 [12],43.3%
same,Activity,SW480 [13],23.88%
same,Activity,SW480 [14],33.33%
same,Activity,SW480 [15],50%
same,Activity,SW480 [16],7.47%
same,Activity,SW480 [17],9.41%
same,Activity,SW480 [18],6.64%
same,Activity,SW480 [19],Dose-dependent effect
same,Activity,SW480 [20],Active
same,Flu intensity,SW480 [21],102.13
same,Flu intensity,SW480 [22],169.24
same,Flu intensity,SW480 [23],192.86
same,Activity,SW480 [24],Dose-dependent effect
same,pIC50,SW480 [25],< 4.70
same,pIC50,SW480 [26],5.90
same,pIC50,HT-29 [27],< 4.70
same,pIC50,HT-29 [28],4.81
same,pIC50,[29],4.79
same,pIC50,[30],5.16
same,Activity,SW480 [31],Active
same,Activity,[32],< 20%
same,pIC50,HT-29 [6],4.83
same,pIC50,HepG2,< 4.70
CC(C)=CCOc1cc2oc(-c3ccccc3)cc(=O)c2c(O)c1O,pIC50,[2],4.62
same,pIC50,[3],4.73
same,pIC50,SW480 [1],5.07
same,pIC50,[4],< 4.70
same,pIC50,[5],< 4.70
same,pIC50,HT-29 [6],< 4.70
same,pIC50,HepG2,< 4.70
O=c1c(O)c(-c2ccc(O)c(O)c2)oc2cc(O)cc(O)c12 [QUERCETIN],pIC50,[2],5.08
same,pIC50,[3],5.14
O=c1[nH]cc(F)c(=O)[nH]1 [FLUOROURACIL],pIC50,SW480 [1],4.49
same,pIC50,HT-29 [6],< 4.00
same,pIC50,HepG2,4.40
COc1c(O)cc(O)c2c(=O)cc(-c3ccccc3)oc12 [WOGONIN],pIC50,SW480 [1],4.46
same,pIC50,[4],4.43
same,pIC50,[5],< 4.40
same,pIC50,HT-29 [6],4.40
same,pIC50,HepG2,4.42
